Assays:
[1] = target: BCLxL (Homo sapiens, UniProt Q07817); settings: consequence of its inhibition of BCLxL; cited from earlier work
[2] = tested on: FaDu H&N cancer cells; assay: Sensitivity of FaDu cells to cisplatin with siRNAs; assay type: cell-based
Procedure: BCLxL and MCL1 siRNAs were mixed together in Lipofectamine RNAiMax and used to transfect FaDu H&N cancer cells. Final combined siRNA concentrations of 0.05 nM, 0.15 nM and 0.45 nM were compared with the effect of a non-silencing (NS) siRNA administered at the same concentrations. The effect of treatment with siRNAs on sensitivity to cisplatin (at 0-64 μM) also were evaluated.

BCLxL, sequence (Q07817 whole entry, species assumed): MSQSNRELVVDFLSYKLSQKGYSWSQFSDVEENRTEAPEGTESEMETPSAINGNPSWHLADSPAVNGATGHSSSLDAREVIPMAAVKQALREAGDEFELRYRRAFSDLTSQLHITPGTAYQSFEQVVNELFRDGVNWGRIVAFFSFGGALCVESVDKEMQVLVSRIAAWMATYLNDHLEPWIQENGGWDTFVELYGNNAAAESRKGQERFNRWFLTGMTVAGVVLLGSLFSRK

Row | SMILES | thrombocytopenia [1] | amount of cisplatin required to cause 100% inhibition of the tumor cell viability ([2]; in the presence of 0.45 nM NS siRNA) [µM] | amount of cisplatin required to cause 100% inhibition of the tumor cell viability ([2]; in the presence of 0.45 nM of BCLxL/MCL1 siRNAs) [µM]
1 | CC1(C)CCC(c2ccc(Cl)cc2)=C(CN2CCN(c3ccc(C(=O)NS(=O)(=O)c4ccc(N[C@H](CCN5CCOCC5)CSc5ccccc5)c(S(=O)(=O)C(F)(F)F)c4)cc3)CC2)C1 [ABT263] | induces thrombocytopenia |  | 
2 | N.N.[Cl][Pt][Cl] [cisplatin] |  | ~32 | < 1

Reference: patent US20220288228A1, “METHODS OF CANCER TREATMENT BY DELIVERY OF siRNAs AGAINST BCLXL AND MCL1 USING A POLYPEPTIDE NANOPARTICLE” (Sirnaomics, Inc., priority 2021, published 2022)
